Values of other authors, collected in patent US20030092754A1, “External preparation for skin diseases containing nitroimidazole” (priority 1999, published 2003).

How the values were obtained:
granuloma formation = settings: mice, oral administration
anti-TBA antibody titer = settings: rabbits, intraperitoneal administration
delayed immune reaction = settings: intraperitoneal administration
[1] = system: swelling of the ears induced by dinitrofluorobenzene; settings: sensitized mice, intraperitoneal administration

For `Cc1ncc([N+](=O)[O-])n1CCO` [metronidazole, 2-(2-methyl-5-nitroimidazol-1-yl)ethanol], the “formation of granuloma by eggs of Schistosoma mansoni” value (granuloma formation) is listed as “inhibited”, the “action on leukocyte migration” value (leukocyte migration) is listed as “inhibitory action on leukocyte migration” and the “increases in anti-TBA antibody titer to TBA vaccine” value (anti-TBA antibody titer) is listed as “significantly inhibits”. The anti-Trichomonas activity (Trichomonas) was “potent anti-Trichomonas activity”, the “delayed immune reaction to intravenous injection of ovine erythrocytes” value (delayed immune reaction) was “inhibits a delayed immune reaction” and the “swelling of the ears induced by dinitrofluorobenzene” value [1] was “inhibit swelling of the ears”. The “antimicrobial activity against Entamoeba histolytica” value (Entamoeba histolytica) was “strong antimicrobial activity”.

For `CCS(=O)(=O)CCn1c([N+](=O)[O-])cnc1C` [tinidazole, 1-(2-ethylsulfonylethyl)-2-methyl-5-nitroimidazole], the “action on leukocyte migration” value (leukocyte migration) is given as “clearly exhibits inhibitory action of leukocyte migration”, the anti-Trichomonas activity (Trichomonas) is given as “primarily has anti-Trichomonas activity” and the “delayed immune reaction to intravenous injection of ovine erythrocytes” value (delayed immune reaction) is given as “tends to inhibit delayed immune reaction”.
